In patent US11497746B2, “Pharmaceutical combinations comprising a histone deacetylase inhibitor and a programmed death-ligand 1 (PD-L1) inhibitor and methods of use thereof” (Acetylon Pharmaceuticals, Inc., priority 2016, dated 2022):

Columns and labels:
[1] = test system: H929 multiple myeloma cells; test: PD-L1 expression by flow cytometry in H929 cells; assay type: cell-based; details: Compound A 1 μM and 2 μM, 48 hours, flow cytometry (FIG. 1)
Method: After bone marrow aspiration, fresh bone marrow mononuclear cells (MNC) were obtained by ammonium chloride based-lyses of red cells followed by washing in phosphate-buffered saline (PBS). For ADCC assays, cells were immediately incubated with anti-PD-L1 antibody (BMS-936559, also referred to herein as “MDX-1105” 1 μg/mL) in the presence of Compound A or Compound B in complete medium in 96-well plate. The cells were incubated for 72 h at 37° C. in a 5% CO2 environment. The viability of primary MM cells in BM MNC was determined by near infrared (n-IR) viability dyes. The surviving CD138+ MM cells were enumerated in the presence of Flow-Count Fluorospheres (Beckman Coulter, CA, USA), to determine absolute numbers of viable MM cells. Phenotypic analyses of MNC were performed using a single 5-color combination of monoclonal antibodies containing BV421/PD-L1(CD274)-BV711 (BD Biosciences, San Jose, Calif., USA). PD-L1 on plasma cells was determined using a commercial assay (BD Biosciences, San Jose, Calif., USA). After incubation, cells were washed twice in PBS containing 2% BSA, and then re-suspended in PBS for analysis on a Fortessa cytometer (Becton Dickinson, Mountain View, Calif.). MM cell lines were also applied to this method in some experiments. […]

[2] = test system: MM.1S, H929, KMS12-PE, OPM1 and U266 multiple myeloma cells; test: PD-L1 expression in a panel of multiple myeloma cell lines; assay type: cell-based; details: 2 μM, 48 hours (FIG. 2)
Method: After bone marrow aspiration, fresh bone marrow mononuclear cells (MNC) were obtained by ammonium chloride based-lyses of red cells followed by washing in phosphate-buffered saline (PBS). For ADCC assays, cells were immediately incubated with anti-PD-L1 antibody (BMS-936559, also referred to herein as “MDX-1105” 1 μg/mL) in the presence of Compound A or Compound B in complete medium in 96-well plate. […] The viability of primary MM cells in BM MNC was determined by near infrared (n-IR) viability dyes. The surviving CD138+ MM cells were enumerated in the presence of Flow-Count Fluorospheres (Beckman Coulter, CA, USA), to determine absolute numbers of viable MM cells. Phenotypic analyses of MNC were performed using a single 5-color combination of monoclonal antibodies containing BV421/PD-L1(CD274)-BV711 (BD Biosciences, San Jose, Calif., USA). PD-L1 on plasma cells was determined using a commercial assay (BD Biosciences, San Jose, Calif., USA). After incubation, cells were washed twice in PBS containing 2% BSA, and then re-suspended in PBS for analysis on a Fortessa cytometer (Becton Dickinson, Mountain View, Calif.). MM cell lines were also applied to this method in some experiments.

U266 cells [3] = test: PD-L1 expression in U266 cells cultured in stromal cell supernatant; assay type: cell-based; details: Compound B 1 μM, 48 hours, FCM (FIG. 3)
Method: Mononuclear cells separated by Ficoll-Hypaque density sedimentation from bone marrow aspirates were cultured in 15% FBS-RPMI1640 for 5-6 weeks to establish long-term bone marrow stromal cells. Culture supernatant from BMSCs was used for stimulation of MM cell lines.
(§1) After bone marrow aspiration, fresh bone marrow mononuclear cells (MNC) were obtained by ammonium chloride based-lyses of red cells followed by washing in phosphate-buffered saline (PBS). For ADCC assays, cells were immediately incubated with anti-PD-L1 antibody (BMS-936559, also referred to herein as “MDX-1105” 1 μg/mL) in the presence of Compound A or Compound B in complete medium in 96-well plate. The cells were incubated for 72 h at 37° C. in a 5% CO2 environment. The viability of primary MM cells in BM MNC was determined by near infrared (n-IR) viability dyes. The surviving CD138+ MM cells were enumerated in the presence of Flow-Count Fluorospheres (Beckman Coulter, CA, USA), to determine absolute numbers of viable MM cells. […] PD-L1 on plasma cells was determined using a commercial assay (BD Biosciences, San Jose, Calif., USA). […]
To determine the effect stromal cell priming has on PD-L1 expression in U266 cells treated with Compound B, U266 cells were cultured in stromal cell supernatant (sup) in the presence or absence of Compound B (1 μM) for 48 hours. PD-L1 expression was assessed by FCM. […]

U266 cells [4] = test: anti-PD-L1 antibody-dependent cell-mediated cytotoxicity in U266 cells; assay type: cell-based; details: Compound B 1 μM plus stromal cell supernatant 48 hours, then anti-PD-L1 antibody 1 μg/ml and PBMC (E/T=15/1 and 30/1) 5 hours, FCM (FIG. 4)
Method: Multiple myeloma cells were incubated with Calcein-AM (Invitrogen, 2 μg/ml/1 million cells) for 30 min at 37° C. After washing, the cells were used for target cells. Mononuclear cells were obtained from healthy volunteer peripheral blood by Ficoll-Paque density centrifugation and used for effector cells. […] Percent specific lysis was calculated as follows, % specific lysis=[experiment fluorescence−spontaneous fluorescence (no effector)]/[complete lysis (100% killing by detergent)−spontaneous fluorescence (no effector)]×100.
as §1

H929 cells = test: anti-PD-L1 antibody-dependent cell-mediated cytotoxicity in H929 cells; assay type: cell-based; details: H929 cells with PBMCs, Compound B alone 0.25, 0.5, 1 μM, 72 h, then anti-PD-L1 antibody 0.5 μg/ml 3 h, FCM (FIG. 7)
Method: After bone marrow aspiration, fresh bone marrow mononuclear cells (MNC) were obtained by ammonium chloride based-lyses of red cells followed by washing in phosphate-buffered saline (PBS). For ADCC assays, cells were immediately incubated with anti-PD-L1 antibody (BMS-936559, also referred to herein as “MDX-1105” 1 μg/mL) in the presence of Compound A or Compound B in complete medium in 96-well plate. The cells were incubated for 72 h at 37° C. in a 5% CO2 environment. The viability of primary MM cells in BM MNC was determined by near infrared (n-IR) viability dyes. […] PD-L1 on plasma cells was determined using a commercial assay (BD Biosciences, San Jose, Calif., USA). […]
To assess the effect of Compound B in combination with pomalidomide on ADCC using anti-PD-L1 antibody-dependent cell-mediated cytotoxicity in H929 cells, H929 cells were stained with carboxyfluorescein succinimidyl ester (CFSE) and cultured with PBMCs in the presence or absence of pomalidomide (0.1 μM), Compound B (0.25, 0.5, 1 μM) for 72 hours. […] Cytotoxicity was assessed by FCM. […]
H929 cells were stained with CFSE and cultured with PBMCs in the presence or absence of pomalidomide (0.1 μM), Compound B (0.25, 0.5, 1 μM) for 72 h. […] Cytotoxicity was assessed by FCM (FIG. 7). […]

[5] = test system: Mononuclear cells from MM patients' bone marrow aspirates; test: anti-PD-L1 antibody induced cytotoxicity, autologous setting, ex vivo; assay type: cell-based, human; details: anti-PD-L1 Ab 0.5 μg/ml, Compound B 0.5 μM, 72 h (FIG. 8 and FIG. 9)
Method: After bone marrow aspiration, fresh bone marrow mononuclear cells (MNC) were obtained by ammonium chloride based-lyses of red cells followed by washing in phosphate-buffered saline (PBS). […] The cells were incubated for 72 h at 37° C. in a 5% CO2 environment. The viability of primary MM cells in BM MNC was determined by near infrared (n-IR) viability dyes. The surviving CD138+ MM cells were enumerated in the presence of Flow-Count Fluorospheres (Beckman Coulter, CA, USA), to determine absolute numbers of viable MM cells. Phenotypic analyses of MNC were performed using a single 5-color combination of monoclonal antibodies containing BV421/PD-L1(CD274)-BV711 (BD Biosciences, San Jose, Calif., USA). PD-L1 on plasma cells was determined using a commercial assay (BD Biosciences, San Jose, Calif., USA). After incubation, cells were washed twice in PBS containing 2% BSA, and then re-suspended in PBS for analysis on a Fortessa cytometer (Becton Dickinson, Mountain View, Calif.). MM cell lines were also applied to this method in some experiments.
H929 cells were stained with CFSE and cultured with PBMCs in the presence or absence of pomalidomide (0.1 μM), Compound B (0.25, 0.5, 1 μM) for 72 h. The cells were then incubated with Ab (0.5 μg/ml PD-L1) for 3 h. Cytotoxicity was assessed by FCM (FIG. 7). […]

RPMI8226 cells = test: anti-PD-L1 antibody-dependent cell-mediated cytotoxicity in RPMI8226 cells; assay type: cell-based; details: RPMI8226 cells with PBMCs (E/T=15/1), pomalidomide 0.1 μM 72 hours, then anti-PD-L1 antibody 0.5 μg/ml 3 hours, FCM (FIG. 5)
Method: After bone marrow aspiration, fresh bone marrow mononuclear cells (MNC) were obtained by ammonium chloride based-lyses of red cells followed by washing in phosphate-buffered saline (PBS). For ADCC assays, cells were immediately incubated with anti-PD-L1 antibody (BMS-936559, also referred to herein as “MDX-1105” 1 μg/mL) in the presence of Compound A or Compound B in complete medium in 96-well plate. The cells were incubated for 72 h at 37° C. in a 5% CO2 environment. The viability of primary MM cells in BM MNC was determined by near infrared (n-IR) viability dyes. The surviving CD138+ MM cells were enumerated in the presence of Flow-Count Fluorospheres (Beckman Coulter, CA, USA), to determine absolute numbers of viable MM cells. Phenotypic analyses of MNC were performed using a single 5-color combination of monoclonal antibodies containing BV421/PD-L1(CD274)-BV711 (BD Biosciences, San Jose, Calif., USA). PD-L1 on plasma cells was determined using a commercial assay (BD Biosciences, San Jose, Calif., USA). […]
Similarly, RPMI8226 cells were cultured with PBMCs (E/T=15/1) in the presence or absence of pomalidomide (Pom, 0.1 μM) for 72 hours. After subsequent cultivation with anti-PD-L1 antibody (0.5 μg/ml) for 3 hours, percent specific killing was assessed by FCM. […]

For `O=C(CCCCCCNC(=O)c1cnc(N(c2ccccc2)c2ccccc2)nc1)NO` [Compound A, 2-(diphenylamino)-N-(7-(hydroxyamino)-7-oxoheptyl)pyrimidine-5-carboxamide], the PD-L1 expression [1] was “increased”.
For `O=C(CCCCCCNC(=O)c1cnc(N(c2ccccc2)c2ccccc2Cl)nc1)NO` [Compound B, 2-((2-chlorophenyl)(phenyl)amino)-N-(7-(hydroxyamino)-7-oxoheptyl)pyrimidine-5-carboxamide], the PD-L1 expression [2] was “enhanced”, the PD-L1 expression (U266 cells [3]) was “highest” and the percent specific lysis (U266 cells [4]) was “greatest”. The “anti-PD-L1 Ab-induced cytotoxicity” value (H929 cells) was “enhanced” and the anti-PD-L1 antibody induced-cytotoxicity [5] was “enhanced”.
`Nc1cccc2c1C(=O)N(C1CCC(=O)NC1=O)C2=O` (stereo not shown) [Pomalidomide, pomalidomide] was tested, and the “percent specific killing (cytotoxicity)” value (RPMI8226 cells) was “enhanced”.
